Experimental data published in ChEMBL document CHEMBL6153096, “Development of Potent and Selective CK1α Molecular Glue Degraders” (J Med Chem, 2025).
Blank lines part the entries; values can stand above or below the compound they belong to. Calls of active or inactive are those of the source. The rule behind the calls is not given here.

Legend:
[1] = target: T1, Cereblon/Casein kinase I alpha (Homo sapiens, UniProt P48729+Q96SW2); assay: Molecular glue activity at CRBN/HiBiT-tagged CK1-alpha in human Jurkat cells assessed as induction of CK1-alpha degradation incubated for 5 hrs by Nano-Glo HiBiT assay; format: cell-based
[2] = target: T1, Cereblon/Casein kinase I alpha; assay: Molecular glue activity at CRBN/CK1-alpha in human MOLM-14 cells assessed as increase in MDM2 level at 0.1 to 1 uM incubated for 24 hrs by Western blot analysis; format: cell-based; settings: dose 0.1-1 µM
Target sequence in this assay (P48729 2-337 limits assumed): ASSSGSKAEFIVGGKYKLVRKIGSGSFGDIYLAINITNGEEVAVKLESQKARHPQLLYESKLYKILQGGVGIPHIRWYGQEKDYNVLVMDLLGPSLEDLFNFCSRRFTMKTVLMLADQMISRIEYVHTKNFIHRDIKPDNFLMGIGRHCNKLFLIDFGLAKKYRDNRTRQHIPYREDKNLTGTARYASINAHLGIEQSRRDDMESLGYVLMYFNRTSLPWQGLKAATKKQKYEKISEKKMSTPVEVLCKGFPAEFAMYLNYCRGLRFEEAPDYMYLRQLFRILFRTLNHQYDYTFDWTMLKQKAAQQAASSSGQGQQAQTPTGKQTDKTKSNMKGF
Target sequence in this assay (Q96SW2 whole entry partner): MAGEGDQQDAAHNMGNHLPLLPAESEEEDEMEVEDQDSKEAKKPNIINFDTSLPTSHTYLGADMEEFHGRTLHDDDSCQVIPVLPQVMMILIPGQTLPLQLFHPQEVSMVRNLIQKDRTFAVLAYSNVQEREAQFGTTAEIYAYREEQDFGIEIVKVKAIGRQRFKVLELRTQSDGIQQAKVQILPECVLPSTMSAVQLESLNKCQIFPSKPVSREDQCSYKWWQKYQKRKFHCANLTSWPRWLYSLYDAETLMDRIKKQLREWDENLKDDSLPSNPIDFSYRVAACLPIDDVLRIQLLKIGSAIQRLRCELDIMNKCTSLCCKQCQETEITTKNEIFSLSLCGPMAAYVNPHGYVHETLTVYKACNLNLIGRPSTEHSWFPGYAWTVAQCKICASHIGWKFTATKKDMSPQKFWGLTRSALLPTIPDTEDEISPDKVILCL

[3] = target: T1, Cereblon/Casein kinase I alpha; assay: Molecular glue activity at CRBN/CK1-alpha in human MOLM-13 cells assessed as increase in MDM2 level at 0.1 to 1 uM incubated for 24 hrs by Western blot analysis; format: cell-based; settings: dose 0.1-1 µM
Target sequence in this assay (P48729 2-337 limits assumed): as the sequence (P48729 2-337 limits assumed) above
Target sequence in this assay (Q96SW2 whole entry partner): as the sequence (Q96SW2 whole entry partner) above

[4] = target: T1, Cereblon/Casein kinase I alpha; assay: Molecular glue activity at CRBN/CK1-alpha in human MOLM-14 cells assessed as increase in p21 level at 0.1 to 1 uM incubated for 24 hrs by Western blot analysis; format: cell-based; settings: dose 0.1-1 µM
Target sequence in this assay (P48729 2-337 limits assumed): as the sequence (P48729 2-337 limits assumed) above
Target sequence in this assay (Q96SW2 whole entry partner): as the sequence (Q96SW2 whole entry partner) above

[5] = target: T1, Cereblon/Casein kinase I alpha; assay: Molecular glue activity at CRBN/CK1-alpha in human MOLM-14 cells assessed as increase in p53 level at 0.1 to 1 uM incubated for 24 hrs by Western blot analysis; format: cell-based; settings: dose 0.1-1 µM
Target sequence in this assay (P48729 2-337 limits assumed): as the sequence (P48729 2-337 limits assumed) above
Target sequence in this assay (Q96SW2 whole entry partner): as the sequence (Q96SW2 whole entry partner) above

[6] = target: T1, Cereblon/Casein kinase I alpha; assay: Molecular glue activity at CRBN/CK1-alpha in human MOLM-13 cells assessed as increase in p53 level at 0.1 to 1 uM incubated for 24 hrs by Western blot analysis; format: cell-based; settings: dose 0.1-1 µM
Target sequence in this assay (P48729 2-337 limits assumed): as the sequence (P48729 2-337 limits assumed) above
Target sequence in this assay (Q96SW2 whole entry partner): as the sequence (Q96SW2 whole entry partner) above

[7] = target: T1, Cereblon/Casein kinase I alpha; assay: Molecular glue activity at CRBN/CK1-alpha in human MOLT-4 cells with CRBN-/- assessed as induction of CK1-alpha degradation at 1 uM incubated for 5 hrs by quantitative mass spectrometry based proteomic analysis; format: cell-based
Target sequence in this assay (P48729 2-337 limits assumed): as the sequence (P48729 2-337 limits assumed) above
Target sequence in this assay (Q96SW2 whole entry partner): as the sequence (Q96SW2 whole entry partner) above

[8] = target: T1, Cereblon/Casein kinase I alpha; assay: Molecular glue activity at CRBN/CK1-alpha in human MOLM-13 cells assessed as increase in p21 level at 0.1 to 1 uM incubated for 24 hrs by Western blot analysis; format: cell-based; settings: dose 0.1-1 µM
MOLM-14 [9] = assay: Antiproliferative activity against human MOLM-14 cells incubated for 72 hrs by CellTiter-Glo Luminescent Cell Viability Assay; format: functional, cell-based
[10] = target: T1, Cereblon/Casein kinase I alpha; assay: Molecular glue activity at CRBN/CK1-alpha in human MOLM-14 cells assessed as induction of CK1-alpha degradation at 1 uM incubated for 5 hrs by Western blot analysis; format: cell-based
[11] = target: T1, Cereblon/Casein kinase I alpha; assay: Molecular glue activity at CRBN/CK1-alpha in human MOLT-4 cells assessed as induction of CK1-alpha degradation at 1 uM incubated for <3 hrs by Western blot analysis; format: cell-based
MOLM-14 [12] = assay: Antiproliferative activity against human MOLM-14 cells with CRBN-/- incubated for 72 hrs by CellTiter-Glo Luminescent Cell Viability Assay; format: functional, cell-based
[13] = Metabolic stability in human liver microsomes assessed as intrinsic clearance; format: ADME, Microsome
[14] = Metabolic stability in human liver microsomes assessed as half life; format: ADME, Microsome
MOLM-13 = assay: Antiproliferative activity against human MOLM-13 cells incubated for 72 hrs by CellTiter-Glo Luminescent Cell Viability Assay; format: functional, cell-based; settings: MOLM-13, 72 h
[15] = target: T1, Cereblon/Casein kinase I alpha; assay: Molecular glue activity at CRBN/CK1-alpha in human MOLM-13 cells assessed as induction of CK1-alpha degradation at 1 uM incubated for 5 hrs by Western blot analysis; format: cell-based
[16] = target: T1, Cereblon/Casein kinase I alpha; assay: Molecular glue activity at CRBN/CK1-alpha in human MOLT-4 cells assessed as induction of CK1-alpha degradation at 100 uM incubated for 5 hrs by Western blot analysis; format: cell-based
[17] = Metabolic stability in mouse liver microsomes assessed as intrinsic clearance; format: ADME, Microsome
[18] = Metabolic stability in mouse liver microsomes assessed as half life; format: ADME, Microsome; settings: for t1/2: microsomes
[19] = target: Zinc finger protein Aiolos (Homo sapiens) (UniProt Q9UKT9); assay: Induction of IKZF3 degradation in human MOLT-4 cells at 1 uM incubated for 5 hrs by quantitative mass spectrometry based proteomic analysis; format: cell-based
Chain of Zinc finger protein Aiolos (Homo sapiens) (Q9UKT9 whole entry): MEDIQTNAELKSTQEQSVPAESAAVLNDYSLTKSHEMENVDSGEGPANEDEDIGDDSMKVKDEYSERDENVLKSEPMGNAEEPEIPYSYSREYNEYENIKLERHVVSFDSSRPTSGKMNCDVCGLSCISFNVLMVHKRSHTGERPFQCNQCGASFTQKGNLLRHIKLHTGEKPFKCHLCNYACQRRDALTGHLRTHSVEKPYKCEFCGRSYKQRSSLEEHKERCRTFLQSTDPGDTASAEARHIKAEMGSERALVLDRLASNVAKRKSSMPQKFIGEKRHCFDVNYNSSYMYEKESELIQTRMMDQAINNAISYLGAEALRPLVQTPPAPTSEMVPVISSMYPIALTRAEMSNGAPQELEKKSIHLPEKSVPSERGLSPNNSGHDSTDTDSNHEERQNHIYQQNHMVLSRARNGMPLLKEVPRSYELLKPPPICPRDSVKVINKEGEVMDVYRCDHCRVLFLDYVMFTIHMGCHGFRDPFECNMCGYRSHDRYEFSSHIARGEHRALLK

MOLT-4 [20] = assay: Induction of GSPT1 degradation in human MOLT-4 cells at 1 uM incubated for 5 hrs by quantitative mass spectrometry based proteomic analysis; format: cell-based
MOLT-4 [21] = assay: Induction of WEE1 degradation in human MOLT-4 cells at 1 uM incubated for 5 hrs by quantitative mass spectrometry based proteomic analysis; format: cell-based
MOLT-4 [22] = assay: Induction of IKZF1 degradation in human MOLT-4 cells at 1 uM incubated for 5 hrs by quantitative mass spectrometry based proteomic analysis; format: cell-based
[23] = target: Zinc finger protein Helios (Homo sapiens) (UniProt Q9UKS7); assay: Induction of IKZF2 degradation in human MOLT-4 cells at 1 uM incubated for 5 hrs by quantitative mass spectrometry based proteomic analysis; format: cell-based
Chain of Zinc finger protein Helios (Homo sapiens) (Q9UKS7 whole entry): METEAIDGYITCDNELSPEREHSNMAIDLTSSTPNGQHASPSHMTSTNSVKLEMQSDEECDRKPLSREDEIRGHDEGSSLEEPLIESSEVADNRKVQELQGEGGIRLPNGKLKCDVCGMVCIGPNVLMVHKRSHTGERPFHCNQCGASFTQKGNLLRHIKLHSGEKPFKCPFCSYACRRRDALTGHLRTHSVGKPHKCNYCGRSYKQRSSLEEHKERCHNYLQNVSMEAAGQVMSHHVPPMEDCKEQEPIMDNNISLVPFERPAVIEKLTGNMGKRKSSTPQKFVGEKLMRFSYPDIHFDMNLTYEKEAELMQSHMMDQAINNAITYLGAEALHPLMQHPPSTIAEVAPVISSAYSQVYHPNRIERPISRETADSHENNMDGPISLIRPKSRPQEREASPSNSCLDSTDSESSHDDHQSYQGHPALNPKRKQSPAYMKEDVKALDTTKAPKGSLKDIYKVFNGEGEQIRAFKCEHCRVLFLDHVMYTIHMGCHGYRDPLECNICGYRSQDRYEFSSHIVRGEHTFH

[24] = Induction of HiBiT-tagged WEE1 degradation in human Jurkat cells incubated for 5 hrs by Nano-Glo HiBiT assay; format: cell-based
Jurkat = assay: Induction of HiBiT-tagged WEE1 degradation in human Jurkat cells incubated for 5 hrs by Nano-Glo HiBiT assay relative to control; format: cell-based

- DC50 [1]: 6.1 nM
- EC90 [1]: 45.5 nM
Compound: O=C1CCC(N2Cc3cc(NC(=O)c4cn5cc(F)ccc5n4)ccc3C2=O)C(=O)N1 (stereo not given)

- Activity [2]: Active
- Activity [3]: Active
- Activity [4]: Active
- Activity [5]: Active
- Activity [6]: Active
- Activity [8]: Active
Compound: COc1ccc2cc(C(=O)Nc3ccc4c(c3)CN(C3CCC(=O)NC3=O)C4=O)ccc2c1 (stereo not given)
- Activity [7]: Not active; Compound Induced Ck1-Alpha Degradation In A Crbn Dependent Manner

- DC50 [1]: 61 nM
Compound: O=C1CCC(N2Cc3cc(NC(=O)c4cc5ncccn5n4)ccc3C2=O)C(=O)N1 (stereo not given)

- DC50 [1]: 8.4 nM
Compound: Cc1c(C(=O)Nc2ccc3c(c2)CN(C2CCC(=O)NC2=O)C3=O)nc2ccccn12 (stereo not given)

- Activity [10]: Active
- Activity [11]: Active
- CLH [13]: < 6 µL/min/mg
- Activity [2]: Active
- Activity [3]: Active
- DC50 [1]: 5.7 nM
- t1/2 [14]: > 2 h
- IC50 (MOLM-13): 41 nM
- Activity [15]: Active
- Activity [4]: Active
- Activity [5]: Active
- Activity [16]: Active; Induces Maximum Degradation
- CLH [17]: 9 µL/min/mg
- Activity [6]: Active
- Activity [8]: Active
- t1/2 [18]: 1.26 h
Compound: O=C1CCC(N2Cc3cc(NC(=O)c4cn5ccccc5n4)ccc3C2=O)C(=O)N1 (stereo not given)
- Activity (MOLM-14 [9]): Active
- Activity (MOLM-14 [12]): inactive

- DC50 [1]: 61 nM
Compound: O=C1CCC(N2Cc3cc(NC(=O)c4nc5ccccn5n4)ccc3C2=O)C(=O)N1 (stereo not given)

- Activity [10]: Active
- DC50 [1]: 1.6 nM
- EC90 [1]: 25 nM
- IC50 (MOLM-13): 29 nM
- Activity [15]: Active
Compound: O=C1CCC(N2Cc3cc(NC(=O)c4cn5cccc(C(F)(F)F)c5n4)ccc3C2=O)C(=O)N1 (stereo not given)
- Activity (MOLM-14 [9]): Active
- Activity (MOLM-14 [12]): inactive

- Activity [19]: inactive
- CLH [13]: 30 µL/min/mg
- DC50 [1]: 79 nM
- t1/2 [14]: 0.39 h
- CLH [17]: < 6 µL/min/mg
- t1/2 [18]: > 2 h
Compound: O=C1CCC(N2Cc3cc(NC(=O)c4cnc5ccccc5c4)ccc3C2=O)C(=O)N1 (stereo not given)
- Activity (MOLT-4 [20]): inactive
- Activity (MOLT-4 [21]): inactive
- Activity (MOLT-4 [22]): inactive

- Activity [19]: inactive
- Activity [10]: Active
- Activity [11]: Active
- CLH [13]: < 6 µL/min/mg
- Activity [2]: Active
- Activity [3]: Active
- DC50 [1]: 46.8 nM
- t1/2 [14]: > 2 h
- IC50 (MOLM-13): 2400 nM
- Activity [15]: Active
- Activity [4]: Active
- Activity [5]: Active
- CLH [17]: 11 µL/min/mg
- Activity [6]: Active
- Activity [8]: Active
- t1/2 [18]: 1.09 h
Compound: O=C1CCC(N2Cc3cc(-c4cnc5ccccc5c4)ccc3C2=O)C(=O)N1 (stereo not given)
- Activity (MOLM-14 [9]): Active
- Activity (MOLM-14 [12]): inactive
- Activity (MOLT-4 [20]): inactive
- Activity (MOLT-4 [21]): inactive
- Activity (MOLT-4 [22]): inactive
- Activity [7]: Not active; Compound Induced Ck1-Alpha Degradation In A Crbn Dependent Manner

- DC50 [1]: 3.3 nM
- EC90 [1]: 35.3 nM
Compound: Cc1cccc2nc(C(=O)Nc3ccc4c(c3)CN(C3CCC(=O)NC3=O)C4=O)cn12 (stereo not given)

- CLH [13]: 18 µL/min/mg
- t1/2 [14]: 0.657 h
- CLH [17]: 33 µL/min/mg
- half-life ([18]; liver microsomes): 0.348 h
Compound: CCN(CC)CCNC(=O)c1c(C)[nH]c(/C=C2\C(=O)Nc3ccc(F)cc32)c1C [SUNITINIB]

- Activity [23]: Active
- DC50 [1]: 10 nM
- DC50 [24]: 43000 nM
Compound: O=C1CCC(N2Cc3cc(-c4cc5ccccc5cn4)ccc3C2=O)C(=O)N1 (stereo not given)
- Activity (MOLT-4 [20]): Active
- Activity (MOLT-4 [21]): Active
- Activity [7]: Not active; Compound Induced Ck1-Alpha Degradation In A Crbn Dependent Manner
- Emax (Jurkat): 80%

- DC50 [1]: > 10000 nM
Compound: O=C1CCC(N2Cc3c(NC(=O)c4cnc5ccccc5c4)cccc3C2=O)C(=O)N1 (stereo not given)

- DC50 [1]: 79 nM
Compound: O=C1CCC(N2C(=O)c3ccc(NC(=O)c4cnc5ccccc5c4)cc3C2=O)C(=O)N1 (stereo not given)

- Activity [10]: Active
- CLH [13]: 11 µL/min/mg
- DC50 [1]: 4.7 nM
- t1/2 [14]: 1.09 h
- IC50 (MOLM-13): 14 nM
- Activity [15]: Active
- CLH [17]: 111 µL/min/mg
- t1/2 [18]: 0.105 h
Compound: O=C1CCC(N2Cc3cc(NC(=O)c4cc5ccccn5n4)ccc3C2=O)C(=O)N1 (stereo not given)
- Activity (MOLM-14 [9]): Active
- Activity (MOLM-14 [12]): inactive

- DC50 [1]: 8.1 nM
- EC90 [1]: 73.1 nM
Compound: COc1cccn2cc(C(=O)Nc3ccc4c(c3)CN(C3CCC(=O)NC3=O)C4=O)nc12 (stereo not given)
